{
  "source": "paper PMC7562719",
  "about": "“Discovery of a CNS penetrant small molecule SMN2 splicing modulator with improved tolerability for spinal muscular atrophy” (Scientific Reports, 2020)",
  "key": {"[1]": {"tested_on": "106 representative proteins that are drug discovery targets", "assay": "Eurofins selectivity panel of 106 representative proteins"}, "ChAT protein": {"tested_on": "ChAT protein", "assay": "ChAT protein in iPSC-derived motor neurons (western blot)", "format": "cell-based, human", "details": "iPSC-derived motor neurons (GM24468), 3 days", "method": "GM03813 fibroblasts and GM24468-derived MNs were seeded at 1.5 × 10^4 and 4 × 10^4 cells/well in 96-well plates and were treated with TEC-1 or SMN-C3 for 72 h at the concentration of 0.01, 0.03, 0.1, 0.3, 1, or 3 µM. After 72 h exposure of compound, GM24468 derived MNs and GM03813 fibroblasts were washed once with D-PBS (-), lysed with RIPA buffer (Wako) containing cOmplete (Sigma-Aldrich) and PhosSTOP (Sigma-Aldrich). The lysates were spun at 15,000 rpm for 15 min at 4 °C, and the supernatants were collected. The protein concentration was quantified with BCA kit (Wako). The lysates, adjusted to have the same protein amount, were mixed with NuPAGE LDS sample buffer containing DTT and heated at 95 °C for 5 min. Except for HTT detection, each sample (2 µg total protein/lane) was loaded Perfect NT Gel 7.5–15% gel (DRC, Japan) and run at 150 V for 60–70 min with Tris/glycine/SDS running buffer (BIO-RAD, USA). The proteins were transferred from the gel to Immobilon-P PVDF Membrane (Millipore, USA) with a transfer solution comprising 10% methanol and 1 × Novex Tris-glycine transfer buffer at 25 V for 180–240 min using Criterion blotter (BIO-RAD). […] After washing with TBS-T four times, chemiluminescence signals were detected by Immunostar Zeta (Wako) and LAS-4000 (GE healthcare)."}, "SMN2 splicing": {"tested_on": "SMN2 splicing", "assay": "qPCR of SMN transcripts in GM03813 cells exposed to TEC-1 and nusinersen", "format": "cell-based, human", "details": "GM03813, 24 h", "method": "Transient transfection of GM03813 fibroblasts with nusinersen (final concentration 100 nM) was performed using Lipofectamine 2000. Cells were seeded 6 h prior to transfection at a density of 5 × 10^3 cells/well in 96-well plate. Transfection was performed according to manufacturer’s instructions. Cells were co-incubated either 0.1% DMSO or with TEC-1 at the concentration of 0.03, 0.1, 0.3, 1, and 3 µM for 24 h."}, "[2]": {"target": "T1, human acetylcholinesterase (Homo sapiens, UniProt P22303)", "T1 construct": "purchased Eurofins Inc", "T1 sequence (P22303 32-614)": "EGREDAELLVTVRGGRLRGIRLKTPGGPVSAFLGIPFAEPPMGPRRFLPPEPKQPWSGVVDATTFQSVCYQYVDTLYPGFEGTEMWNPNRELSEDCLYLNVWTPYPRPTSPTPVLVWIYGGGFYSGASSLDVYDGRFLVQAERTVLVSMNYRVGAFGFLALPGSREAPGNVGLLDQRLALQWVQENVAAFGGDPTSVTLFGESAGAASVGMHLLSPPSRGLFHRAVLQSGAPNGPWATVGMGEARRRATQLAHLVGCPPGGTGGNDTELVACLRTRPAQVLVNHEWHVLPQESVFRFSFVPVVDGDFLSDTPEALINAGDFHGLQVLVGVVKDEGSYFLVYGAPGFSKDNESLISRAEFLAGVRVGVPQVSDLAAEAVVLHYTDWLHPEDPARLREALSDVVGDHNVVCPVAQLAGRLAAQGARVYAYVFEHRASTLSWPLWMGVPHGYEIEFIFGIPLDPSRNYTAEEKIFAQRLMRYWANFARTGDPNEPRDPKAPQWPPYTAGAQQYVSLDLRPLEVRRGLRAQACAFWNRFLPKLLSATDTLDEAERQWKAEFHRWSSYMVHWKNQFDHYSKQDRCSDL", "assay": "Eurofins selectivity panel: acetylcholinesterase", "format": "biochemical"}},
  "data": [
    {"smiles": "Cc1cn2nc(-c3nc4ccc(N5CCN(C)CC5)cc4c(=O)[nH]3)cc2c(C)n1", "note": "[TEC-1, 2-(4,6-dimethylpyrazolo[1,5-a]pyrazin-2-yl)-6-(4-methylpiperazin-1-yl)quinazolin-4(3H)-one]", "values": [
      {"measurement": "effect on biological activity of 106 representative proteins", "setting": "[1]", "value": "weakly affected the biological activity of only two targets"},
      {"measurement": "ChAT protein level", "setting": "ChAT protein", "value": "increase the levels of choline acetyltransferase (ChAT)"},
      {"measurement": "effect on the activity of nusinersen", "setting": "SMN2 splicing; TEC-1 at 1 and 3 µM with nusinersen 100 nM", "value": "significantly enhanced the effects of nusinersen"},
      {"measurement": "effect on the activity of nusinersen", "setting": "SMN2 splicing; low concentrations of TEC-1 with nusinersen 100 nM", "value": "did not inhibit the effects of nusinersen"},
      {"measurement": "IC50", "setting": "[2]", "value": 1190, "unit": "nM"}
    ]}
  ]
}
